Our source for the remaining binding values is paper PMC8799717, “Pharmacological targeting PIKfyve and tubulin as an effective treatment strategy for double-hit lymphoma” (Cell Death Discovery, 2022).

Experiment [1] has as its target KIT (Homo sapiens, UniProt P10721). The experiment in a line: KINOMEscan competition binding, single dose […]. The conditions noted are these: read-out: % of control at 1 μM.
Experiment [2] has as its target GAK (Homo sapiens, UniProt O14976). As to the kind of experiment: biochemical. The following applies: KINOMEscan binding, percent of DMSO control; read-out: Ctrl%. More on the design: KINOMEscan active-site-directed competition binding panel, 468 kinases, percent of DMSO control at 1 uM.
In experiment [3] the target is RET(V804L) (Homo sapiens, UniProt P07949, V804L). The experiment in a line: biochemical. More on the design: KINOMEscan active-site-directed competition binding panel, 468 kinases, percent of DMSO control at 1 uM. The conditions noted are these: KINOMEscan binding, percent of DMSO control; read-out: Ctrl%.
Experiment [4] has as its target SRPK3 (Homo sapiens, UniProt Q9UPE1). As to the kind of experiment: biochemical. More on the design: KINOMEscan active-site-directed competition binding panel, 468 kinases, percent of DMSO control at 1 uM. The following applies: KINOMEscan binding, percent of DMSO control; read-out: Ctrl%.
Experiment [5] addresses T1, RSK2(Kin.Dom.1-N-terminal) (Homo sapiens, UniProt P51812).
T1 construct: gene RPS6KA3; Kin.Dom.1-N-terminal
The experiment in a line: biochemical. The conditions noted are these: KINOMEscan binding, percent of DMSO control; read-out: Ctrl%. More on the design: KINOMEscan active-site-directed competition binding panel, 468 kinases, percent of DMSO control at 1 uM.

For experiment [6], the target named is T2, PFTK1 (Homo sapiens, UniProt O94921).
T2 construct: gene CDK14
As to the kind of experiment: biochemical. More on the design: KINOMEscan active-site-directed competition binding panel, 468 kinases, percent of DMSO control at 1 uM. The conditions noted are these: KINOMEscan binding, percent of DMSO control; read-out: Ctrl%.

Experiment [7] addresses T3, RSK3(Kin.Dom.1-N-terminal) (Homo sapiens, UniProt Q15349).
T3 construct: gene RPS6KA2; Kin.Dom.1-N-terminal
As to the kind of experiment: biochemical. Also on record: KINOMEscan active-site-directed competition binding panel, 468 kinases, percent of DMSO control at 1 uM. The conditions noted are these: KINOMEscan binding, percent of DMSO control; read-out: Ctrl%.

The target in experiment [8] is T4, JAK1(JH2domain-pseudokinase) (Homo sapiens, UniProt P23458).
T4 construct: JH2domain-pseudokinase
T4 sequence (P23458 whole entry): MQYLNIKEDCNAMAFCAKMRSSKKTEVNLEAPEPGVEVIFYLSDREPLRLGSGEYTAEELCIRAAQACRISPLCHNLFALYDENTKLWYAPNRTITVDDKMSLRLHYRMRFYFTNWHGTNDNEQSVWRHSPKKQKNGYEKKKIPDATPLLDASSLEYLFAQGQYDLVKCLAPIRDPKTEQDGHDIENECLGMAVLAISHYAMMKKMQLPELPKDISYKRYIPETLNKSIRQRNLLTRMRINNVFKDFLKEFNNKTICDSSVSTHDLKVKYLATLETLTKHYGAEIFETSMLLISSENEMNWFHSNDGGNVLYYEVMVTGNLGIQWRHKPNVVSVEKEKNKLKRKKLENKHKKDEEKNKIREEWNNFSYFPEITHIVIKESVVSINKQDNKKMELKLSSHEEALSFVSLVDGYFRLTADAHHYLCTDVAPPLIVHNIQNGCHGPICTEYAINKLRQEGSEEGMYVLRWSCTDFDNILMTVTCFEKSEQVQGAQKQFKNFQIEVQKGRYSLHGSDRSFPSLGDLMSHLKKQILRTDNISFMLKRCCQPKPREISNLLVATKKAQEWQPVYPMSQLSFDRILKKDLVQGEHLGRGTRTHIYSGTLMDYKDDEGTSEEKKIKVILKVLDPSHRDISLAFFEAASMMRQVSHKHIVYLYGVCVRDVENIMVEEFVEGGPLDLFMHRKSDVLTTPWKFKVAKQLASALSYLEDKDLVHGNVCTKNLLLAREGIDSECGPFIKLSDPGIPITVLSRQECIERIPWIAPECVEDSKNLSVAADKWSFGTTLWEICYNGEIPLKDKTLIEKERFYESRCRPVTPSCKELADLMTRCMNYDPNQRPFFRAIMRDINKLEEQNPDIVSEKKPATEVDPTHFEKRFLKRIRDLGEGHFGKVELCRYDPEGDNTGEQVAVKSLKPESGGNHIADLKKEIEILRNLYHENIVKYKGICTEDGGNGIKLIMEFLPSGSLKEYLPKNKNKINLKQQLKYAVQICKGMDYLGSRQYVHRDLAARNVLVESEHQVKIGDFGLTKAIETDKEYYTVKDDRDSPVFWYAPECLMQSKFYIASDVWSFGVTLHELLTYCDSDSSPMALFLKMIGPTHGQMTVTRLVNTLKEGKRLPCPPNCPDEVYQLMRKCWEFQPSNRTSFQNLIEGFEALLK
As to the kind of experiment: biochemical. Also on record: KINOMEscan active-site-directed competition binding panel, 468 kinases, percent of DMSO control at 1 uM. The conditions noted are these: KINOMEscan binding, percent of DMSO control; read-out: Ctrl%.

Experiment [9] has as its target T5, MST4 (Homo sapiens, UniProt Q9P289).
T5 construct: gene STK26
The experiment in a line: biochemical. Also on record: KINOMEscan active-site-directed competition binding panel, 468 kinases, percent of DMSO control at 1 uM. The conditions noted are these: KINOMEscan binding, percent of DMSO control; read-out: Ctrl%.

The target of experiment [10] is HIPK3 (Homo sapiens, UniProt Q9H422). As to the kind of experiment: biochemical. The conditions noted are these: KINOMEscan binding, percent of DMSO control; read-out: Ctrl%. Also on record: KINOMEscan active-site-directed competition binding panel, 468 kinases, percent of DMSO control at 1 uM.
Experiment [11] deals with T6, ICK (Homo sapiens, UniProt Q9UPZ9).
T6 construct: gene CILK1
The experiment in a line: biochemical. Also on record: KINOMEscan active-site-directed competition binding panel, 468 kinases, percent of DMSO control at 1 uM. The conditions noted are these: KINOMEscan binding, percent of DMSO control; read-out: Ctrl%.

In experiment [12] the target is T7, PKAC-alpha (Homo sapiens, UniProt P17612).
T7 construct: gene PRKACA
The experiment in a line: biochemical. More on the design: KINOMEscan active-site-directed competition binding panel, 468 kinases, percent of DMSO control at 1 uM. The following applies: KINOMEscan binding, percent of DMSO control; read-out: Ctrl%.

Experiment [13] concerns the target KIT(D816V) (Homo sapiens, UniProt P10721, D816V). The experiment in a line: biochemical. More on the design: KINOMEscan active-site-directed competition binding panel, 468 kinases, percent of DMSO control at 1 uM. The following applies: KINOMEscan binding, percent of DMSO control; read-out: Ctrl%.
Experiment [14] concerns the target T8, IKK-epsilon (Homo sapiens, UniProt Q14164).
T8 construct: gene IKBKE
As to the kind of experiment: biochemical. Also on record: KINOMEscan active-site-directed competition binding panel, 468 kinases, percent of DMSO control at 1 uM. The conditions noted are these: KINOMEscan binding, percent of DMSO control; read-out: Ctrl%.

For experiment [15], the target named is EPHA6 (Homo sapiens, UniProt Q9UF33). As to the kind of experiment: biochemical. More on the design: KINOMEscan active-site-directed competition binding panel, 468 kinases, percent of DMSO control at 1 uM. The following applies: KINOMEscan binding, percent of DMSO control; read-out: Ctrl%.
In experiment [16] the target is SYK (Homo sapiens, UniProt P43405). The experiment in a line: biochemical. More on the design: KINOMEscan active-site-directed competition binding panel, 468 kinases, percent of DMSO control at 1 uM. The conditions noted are these: KINOMEscan binding, percent of DMSO control; read-out: Ctrl%.
The target of experiment [17] is T9, RSK3(Kin.Dom.2-C-terminal) (Homo sapiens, UniProt Q15349).
T9 construct: gene RPS6KA2; Kin.Dom.2-C-terminal
T9 sequence (Q15349 whole entry): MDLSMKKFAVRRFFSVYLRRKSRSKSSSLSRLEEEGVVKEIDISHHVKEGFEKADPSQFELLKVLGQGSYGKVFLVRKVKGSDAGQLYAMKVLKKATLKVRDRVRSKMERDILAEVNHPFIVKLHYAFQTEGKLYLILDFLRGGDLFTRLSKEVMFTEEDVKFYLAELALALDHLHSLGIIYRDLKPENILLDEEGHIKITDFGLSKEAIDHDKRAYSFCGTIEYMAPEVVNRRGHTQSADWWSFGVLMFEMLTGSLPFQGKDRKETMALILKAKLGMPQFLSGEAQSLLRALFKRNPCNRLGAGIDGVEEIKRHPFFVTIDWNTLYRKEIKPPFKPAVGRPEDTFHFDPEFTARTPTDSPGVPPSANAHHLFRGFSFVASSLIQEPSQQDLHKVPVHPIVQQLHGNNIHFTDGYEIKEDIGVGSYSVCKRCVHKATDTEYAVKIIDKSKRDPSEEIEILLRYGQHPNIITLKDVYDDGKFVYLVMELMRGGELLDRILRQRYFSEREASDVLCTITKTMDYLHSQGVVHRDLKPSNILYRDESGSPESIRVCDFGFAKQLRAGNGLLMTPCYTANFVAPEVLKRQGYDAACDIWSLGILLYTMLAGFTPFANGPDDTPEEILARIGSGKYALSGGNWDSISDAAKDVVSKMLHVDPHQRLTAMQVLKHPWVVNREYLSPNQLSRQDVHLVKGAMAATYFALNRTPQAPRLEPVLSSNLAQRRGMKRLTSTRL
The experiment in a line: biochemical. More on the design: KINOMEscan active-site-directed competition binding panel, 468 kinases, percent of DMSO control at 1 uM. The following applies: KINOMEscan binding, percent of DMSO control; read-out: Ctrl%.

Experiment [18] deals with MERTK (Homo sapiens, UniProt Q12866). The experiment in a line: biochemical. More on the design: KINOMEscan active-site-directed competition binding panel, 468 kinases, percent of DMSO control at 1 uM. The conditions noted are these: KINOMEscan binding, percent of DMSO control; read-out: Ctrl%.
Experiment [19] has as its target T10, IKK-beta (Homo sapiens, UniProt O14920).
T10 construct: gene IKBKB
As to the kind of experiment: biochemical. More on the design: KINOMEscan active-site-directed competition binding panel, 468 kinases, percent of DMSO control at 1 uM. The conditions noted are these: KINOMEscan binding, percent of DMSO control; read-out: Ctrl%.

In experiment [20] the target is CSNK1A1L (Homo sapiens, UniProt Q8N752). As to the kind of experiment: biochemical. More on the design: KINOMEscan active-site-directed competition binding panel, 468 kinases, percent of DMSO control at 1 uM. The following applies: KINOMEscan binding, percent of DMSO control; read-out: Ctrl%.
Experiment [21] concerns the target ULK1 (Homo sapiens, UniProt O75385). The experiment in a line: biochemical. Also on record: KINOMEscan active-site-directed competition binding panel, 468 kinases, percent of DMSO control at 1 uM. The conditions noted are these: KINOMEscan binding, percent of DMSO control; read-out: Ctrl%.
Experiment [22] concerns the target T11, p38-beta (Homo sapiens, UniProt Q15759).
T11 construct: gene MAPK11
The experiment in a line: biochemical. Also on record: KINOMEscan active-site-directed competition binding panel, 468 kinases, percent of DMSO control at 1 uM. The following applies: KINOMEscan binding, percent of DMSO control; read-out: Ctrl%.

Experiment [23] has as its target FYN (Homo sapiens, UniProt P06241). As to the kind of experiment: biochemical. Also on record: KINOMEscan active-site-directed competition binding panel, 468 kinases, percent of DMSO control at 1 uM. The conditions noted are these: KINOMEscan binding, percent of DMSO control; read-out: Ctrl%.

SRPK3, sequence (Q9UPE1 whole entry): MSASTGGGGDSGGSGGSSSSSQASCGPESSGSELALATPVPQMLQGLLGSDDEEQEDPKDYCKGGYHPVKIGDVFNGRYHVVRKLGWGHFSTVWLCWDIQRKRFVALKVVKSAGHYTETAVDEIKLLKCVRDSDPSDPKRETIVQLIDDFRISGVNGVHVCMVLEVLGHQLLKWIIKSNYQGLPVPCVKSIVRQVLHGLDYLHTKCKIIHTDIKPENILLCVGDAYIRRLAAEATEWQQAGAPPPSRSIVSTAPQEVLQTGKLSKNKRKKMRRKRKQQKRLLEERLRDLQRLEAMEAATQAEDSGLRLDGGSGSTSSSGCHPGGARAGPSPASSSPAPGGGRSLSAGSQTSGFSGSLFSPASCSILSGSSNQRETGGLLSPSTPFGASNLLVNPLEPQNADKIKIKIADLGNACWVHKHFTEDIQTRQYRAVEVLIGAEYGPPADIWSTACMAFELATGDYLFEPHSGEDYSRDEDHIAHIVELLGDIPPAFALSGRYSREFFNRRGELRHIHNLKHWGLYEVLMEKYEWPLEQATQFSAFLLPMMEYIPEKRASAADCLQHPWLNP
T3 sequence (Q15349 whole entry): as the sequence (Q15349 whole entry) above
GAK, sequence (O14976 whole entry): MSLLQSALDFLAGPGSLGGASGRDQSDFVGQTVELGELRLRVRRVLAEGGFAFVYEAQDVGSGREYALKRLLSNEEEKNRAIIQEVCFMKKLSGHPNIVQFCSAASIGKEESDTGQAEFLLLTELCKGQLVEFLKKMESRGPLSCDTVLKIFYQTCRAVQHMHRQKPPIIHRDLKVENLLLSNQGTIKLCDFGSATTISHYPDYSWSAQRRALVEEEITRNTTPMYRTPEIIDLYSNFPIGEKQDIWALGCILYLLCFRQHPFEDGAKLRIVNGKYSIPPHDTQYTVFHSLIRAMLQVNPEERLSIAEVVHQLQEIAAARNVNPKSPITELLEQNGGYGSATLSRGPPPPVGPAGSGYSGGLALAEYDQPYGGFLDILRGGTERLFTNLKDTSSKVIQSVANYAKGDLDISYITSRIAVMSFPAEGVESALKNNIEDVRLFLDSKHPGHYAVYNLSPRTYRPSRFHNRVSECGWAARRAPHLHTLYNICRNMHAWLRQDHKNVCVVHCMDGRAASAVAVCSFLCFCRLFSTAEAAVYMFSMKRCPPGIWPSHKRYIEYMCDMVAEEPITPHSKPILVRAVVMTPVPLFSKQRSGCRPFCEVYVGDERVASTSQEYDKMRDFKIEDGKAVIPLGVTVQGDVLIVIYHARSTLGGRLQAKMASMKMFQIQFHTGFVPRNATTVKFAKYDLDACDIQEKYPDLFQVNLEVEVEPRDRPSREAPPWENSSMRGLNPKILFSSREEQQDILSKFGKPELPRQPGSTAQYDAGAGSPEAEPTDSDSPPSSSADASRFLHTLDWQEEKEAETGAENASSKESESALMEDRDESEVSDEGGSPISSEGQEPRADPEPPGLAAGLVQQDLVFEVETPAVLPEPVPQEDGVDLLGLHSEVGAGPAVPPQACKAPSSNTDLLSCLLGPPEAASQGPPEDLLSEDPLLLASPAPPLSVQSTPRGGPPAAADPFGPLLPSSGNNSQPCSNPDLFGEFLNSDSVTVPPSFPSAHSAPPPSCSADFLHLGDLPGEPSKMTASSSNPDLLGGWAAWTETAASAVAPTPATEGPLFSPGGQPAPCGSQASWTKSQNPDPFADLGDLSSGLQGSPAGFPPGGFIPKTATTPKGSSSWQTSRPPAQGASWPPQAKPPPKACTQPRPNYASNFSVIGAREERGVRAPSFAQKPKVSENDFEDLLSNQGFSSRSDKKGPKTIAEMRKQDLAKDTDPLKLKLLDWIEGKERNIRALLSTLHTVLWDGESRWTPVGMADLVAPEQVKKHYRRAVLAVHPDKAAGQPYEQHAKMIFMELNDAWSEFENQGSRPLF
KIT(D816V), sequence (P10721 whole entry D816V): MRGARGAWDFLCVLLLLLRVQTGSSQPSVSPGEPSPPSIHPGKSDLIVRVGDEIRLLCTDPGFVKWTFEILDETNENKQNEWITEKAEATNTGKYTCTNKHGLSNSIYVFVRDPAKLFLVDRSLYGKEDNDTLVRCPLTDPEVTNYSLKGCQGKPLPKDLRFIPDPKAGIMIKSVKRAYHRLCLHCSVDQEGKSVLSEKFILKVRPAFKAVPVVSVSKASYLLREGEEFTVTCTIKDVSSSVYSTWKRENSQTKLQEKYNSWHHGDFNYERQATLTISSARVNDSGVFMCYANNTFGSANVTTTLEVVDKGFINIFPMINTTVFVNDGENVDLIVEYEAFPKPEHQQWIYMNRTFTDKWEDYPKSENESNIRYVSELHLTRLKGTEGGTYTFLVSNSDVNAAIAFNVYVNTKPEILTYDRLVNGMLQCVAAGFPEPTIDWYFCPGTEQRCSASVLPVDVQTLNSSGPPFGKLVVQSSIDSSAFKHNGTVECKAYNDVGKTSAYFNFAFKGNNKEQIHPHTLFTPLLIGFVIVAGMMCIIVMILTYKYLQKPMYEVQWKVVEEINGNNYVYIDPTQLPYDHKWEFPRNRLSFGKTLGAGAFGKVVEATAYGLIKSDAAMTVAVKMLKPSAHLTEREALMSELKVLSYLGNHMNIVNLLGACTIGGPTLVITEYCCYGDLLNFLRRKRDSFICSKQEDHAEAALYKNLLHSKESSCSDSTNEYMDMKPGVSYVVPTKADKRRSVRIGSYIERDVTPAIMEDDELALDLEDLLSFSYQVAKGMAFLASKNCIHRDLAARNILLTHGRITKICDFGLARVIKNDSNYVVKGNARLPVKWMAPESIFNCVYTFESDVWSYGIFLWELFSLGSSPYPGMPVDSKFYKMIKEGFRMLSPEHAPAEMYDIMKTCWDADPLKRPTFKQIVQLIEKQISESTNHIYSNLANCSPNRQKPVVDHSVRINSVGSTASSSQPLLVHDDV

As to `Cc1ccc(NC(=O)c2cccc(C(F)(F)F)c2)cc1Nc1cc(-c2cccnc2)nc2[nH]ccc12` [HZX-02-059], the remaining binding at 1 µM in experiment [1] was 1.2%; in experiment [2], 91%; in experiment [3], 100%; in experiment [4] it was 93%; in experiment [5], 78%; in experiment [6] it was 98%. The remaining binding at 1 µM was determined as 98% in experiment [7]; 64% in experiment [8]; 80% in [9]; 94% in [10]; 77% in experiment [11]; 94% in experiment [12]. For the same compound, the remaining binding at 1 µM in experiment [13] is 93%; in [14], 70%; in experiment [15], 69%; in [16] it was 100%; in experiment [17] it was 89%; in experiment [18], 86%. Moreover, the remaining binding at 1 µM turned out to be 100% in experiment [19]; 92% in experiment [20]; 97% in experiment [21]; 64% in experiment [22]; 85% in experiment [23].
